Where “and” joins values, the source holds several entries; their conditions need not be identical. Identical values can stand only once.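 Exposure lasted 48 hours, with cells grown in 96-well plates and compounds tested at five concentrations. GI50: concentration for 50% inhibition of growth. TGI denotes the concentration required for complete inhibition of growth.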
Key:
Test in all cases: inhibition of tumour cell growth, NCI panel, 48 h
[1] = test system: BT-549 breast
[2] = test system: OVCAR-3 ovarian
[3] = test system: MCF7 breast
[4] = test system: NCI-H522 lung
[5] = test system: HCT-15 colon
[6] = test system: CCRF-CEM leukemia
[7] = test system: U251 CNS
[8] = test system: HOP-92 NSCLC
[9] = test system: NCI/ADR-RES ovarian
[10] = test system: SK-MEL-2 melanoma

Structure (SMILES) | GI50 [1] | TGI [1] | GI50 [2] | TGI [2] | GI50 [3] | TGI [3] | GI50 [4] | TGI [4] | GI50 [5] | TGI [5] | GI50 [6] | TGI [6] | GI50 [7] | TGI [7] | GI50 [8] | TGI [8] | GI50 [9] | TGI [9] | GI50 [10] | TGI [10]
FC(F)(F)c1[nH]ncc1-c1nc2ccc3[nH]ncc3c2c2c1CCCC2 | 1210 nM | 2660 nM | 2660 nM | 6860 nM | 1670 nM | 10100 nM | 1240 nM | 4770 nM | 2280 nM | 10100 nM | 2150 nM | 10700 nM | 2560 nM | 7500 nM | 1210 nM | 3500 nM | 2490 nM | 13900 nM | 1640 nM | 3610 nM
Cc1cc2c(=O)[nH]c(N)nc2nc1C | – | > 100000 nM | – | > 100000 nM | – | > 100000 nM | – | > 100000 nM | – | > 100000 nM | – | > 100000 nM | – | > 100000 nM | – | > 100000 nM | – | > 100000 nM | – | > 100000 nM
COc1ccc(-c2nc(-c3nc4ccc(C(F)(F)F)cc4[nH]3)c3ccccn23)cc1 | > 100000 nM | > 100000 nM | > 100000 nM | > 100000 nM | 26300 nM | > 100000 nM | > 100000 nM | > 100000 nM | > 100000 nM | > 100000 nM | 7400 nM | > 100000 nM | > 100000 nM | > 100000 nM | > 100000 nM | > 100000 nM | 85300 nM | > 100000 nM | > 100000 nM | > 100000 nM
O=C(c1ccccc1O)c1[nH]c(Cl)c(Cl)c1-n1c(C(=O)c2ccccc2O)cc(Cl)c1Cl | 1220 nM and 675 nM | 6740 nM and 4960 nM | 1030 nM and 704 nM | 13100 nM and 13400 nM | 407 nM and 258 nM | 10600 nM and 10300 nM | 317 nM and 363 nM | 1400 nM and 7680 nM | 316 nM and 298 nM | 12100 nM and 11100 nM | 467 nM and 382 nM | 16900 nM and 12200 nM | 1290 nM and 1420 nM | 12300 nM and 13600 nM | 224 nM and 155 nM | 940 nM and 587 nM | 669 nM and 456 nM | 12900 nM and 11200 nM | 335 nM and 1130 nM | 1410 nM and 5680 nM
CN(C)c1ccc(C(=C2C=CC(=[N+](C)C)C=C2)c2ccccc2Cl)cc1 | 373 nM | 2560 nM | 261 nM | 699 nM | 237 nM | 899 nM | 268 nM | 925 nM | 717 nM | 4960 nM | 402 nM | 5060 nM | 127 nM | 1140 nM | 302 nM | 1350 nM | 1890 nM | 14800 nM | 339 nM | 899 nM
CCN(CC)CCCNc1[nH]ncc2c(C)c3nc4ccccc4c3cc12 | 2080 nM | 2750 nM and 5170 nM | 589 nM | 3140 nM and 7110 nM | 219 nM | 756 nM and 5900 nM | 217 nM | 1150 nM and 1140 nM | 6540 nM | 21400 nM and 36500 nM | 132 nM | – | 428 nM | 1710 nM and 3570 nM | 613 nM | 3630 nM and 5800 nM | 56100 nM | 200000 nM | 1590 nM | 3110 nM and 7170 nM
Oc1c2c(c(O)c3ccccc13)C1(N=N2)c2ccccc2Oc2ccccc21 | – | 23500 nM | – | 10800 nM | – | 13600 nM | – | 5130 nM | – | 9150 nM | – | 29900 nM | – | 16400 nM | – | 31000 nM | – | 33400 nM | – | 27400 nM
O=C1N[C@H]2[C@H](O)[C@H](O)[C@@H](O)[C@H](O)[C@@H]2c2cc3c(c(O)c21)OCO3 | 18.7 nM | 68.4 nM and 142 nM | 275 nM and 347 nM | – | 20.8 nM | – | 143 nM | 886 nM and 141 nM | 462 nM | – | 137 nM | 767 nM and 485 nM | 156 nM and 187 nM | – | 333 nM | – | 24.1 nM | 189 nM and 523 nM | 266 nM | –
CC(=O)/C(=C\c1c(-c2ccccc2)[nH]c2ccccc12)S(=O)(=O)c1ccccc1 | 1760 nM | 11000 nM | 1540 nM | 4520 nM | 903 nM | 9360 nM | 1170 nM | 4350 nM | 834 nM | 3210 nM | 1400 nM | 4780 nM | 1200 nM | 3620 nM | 3660 nM | 15400 nM | 513 nM | 5620 nM | 1390 nM | 5300 nM
CC1(C)N=C(N)N=C(N)N1c1ccc(Cl)c(Cl)c1 | 6660 nM | > 100000 nM | 5270 nM | > 100000 nM | 388 nM | > 100000 nM | 6670 nM | > 100000 nM | 1370 nM | > 100000 nM | 3390 nM | > 52300 nM | 88.7 nM | > 100000 nM | 47100 nM | > 100000 nM | 43000 nM | > 100000 nM | > 100000 nM | > 100000 nM
